Literature values, collected in patent US12414914B2, “Docetaxel composition for injection and preparation method therefor” (BIKA BIOTECHNOLOGY (GUANGZHOU) CO., LTD, priority 2018, dated 2025).

Columns and labels:
[1] = system: cancer cells; details: compared to paclitaxel
[2] = system: microtubules
[3] = system: microtubules; details: compared to paclitaxel

CC(=O)O[C@@]12CO[C@@H]1C[C@H](O)[C@@]1(C)C(=O)[C@H](O)C3=C(C)[C@@H](OC(=O)[C@H](O)[C@@H](NC(=O)OC(C)(C)C)c4ccccc4)C[C@@](O)([C@@H](OC(=O)c4ccccc4)[C@H]21)C3(C)C (relative stereo) [docetaxel, [2aR-(2aα, 4β, 4aβ, 6β, 9α, (aR*, βS*), 11α, 12α, 12aα, 12bα)]-β-[[(1,1-dimethylethoxy)carbonyl]amino]-α-hydroxybenzene propanoic acid [12b-acetyloxy-12-benzoyloxy-2a, 3,4,4a, 5,6,9, 10, 11, 12, 12a, 12b-dodecahydro-4,6, 11-trihydroxy-4a, 8, 13, 13-tetramethyl-5-oxo-7, 11-methano-1H-cyclodeca-[3, 4]benz [1,2-b]oxet-9-yl] ester]
anti-tumor activity in vitro relative to paclitaxel [1]: 1.3˜12 times more active | Affinity to microtubules compared to paclitaxel [2]: 2 times higher | stability in alkaline conditions (alkaline conditions): unstable in alkaline conditions | solubility in ethanol (ethanol): soluble in ethanol | solubility in water (water): practically insoluble in water | activity as microtubule stabilizer and assembly promoter relative to paclitaxel [3]: twice as active as paclitaxel | activity as microtubule-depolymerizing inhibitor relative to paclitaxel [3]: twice as active as paclitaxel
